Measurements as given in ChEMBL document CHEMBL3885861, “Open TG-GATES”.

Species: Rattus norvegicus
Experiment: Open TG-GATES - Regimen: Single
Format: toxicity, organism-based, Sprague-Dawley
Design: regimen Single, gender Male, age 6 weeks
Conditions: in vivo, ip, 120 mg/kg, route intraperitoneal injection, dose level Middle; for APTT / Bas / Eos / Fbg / Hb / Ht / Lym / MCH / MCHC / MCV / Mono / Neu / PT / Plat / RBC / Ret / WBC: tissue Blood; for KIDNEY_L / KIDNEY_R / KIDNEY_TOTAL: tissue Kidney; for LIVER: tissue Liver; for A/G / ALP / ALT / AST / BUN / CRE / Ca / Cl / DBIL / GLC / IP / K / LDH / Na / PL / RALB / TBIL / TC / TG / TP / gamma-GTP: tissue Plasma

What does the source list for `CC(C)=CC(=O)C=C(C)C` [PHORONE]?
TERMINAL_BW (3 h): 223.2 g; APTT (3 h): 16.6 s; Bas (3 h): 0%; Eos (3 h): 0.8%; Fbg (3 h): 219.8 mg/dL; Hb (3 h): 13.8 g/dL; Ht (3 h): 41%; Lym (3 h): 74.4%; MCH (3 h): 21.7 pg; MCHC (3 h): 33.5%; MCV (3 h): 64.6 fL; Mono (3 h): 8.4%; Neu (3 h): 16.2%; PT (3 h): 12.2 s; Plat (3 h): 124.2 x10_4/uL; RBC (3 h): 635.4 x10_4/ul; Ret (3 h): 8.8%; WBC (3 h): 65.2 x10_2/uL; KIDNEY_L (3 h): 1 g; KIDNEY_R (3 h): 1 g; KIDNEY_TOTAL (3 h): 2 g; LIVER (3 h): 10.2 g; A/G (3 h): 2.2; ALP (3 h): 897.8 IU/L; ALT (3 h): 34.6 IU/L; AST (3 h): 76.2 IU/L; BUN (3 h): 15.2 mg/dL; CRE (3 h): 0.6 mg/dL; Ca (3 h): 11.2 mg/dL; Cl (3 h): 103 meq/L; DBIL (3 h): 0.038 mg/dL; GLC (3 h): 213.4 mg/dL; IP (3 h): 10.1 mg/dL; K (3 h): 5.1 meq/L; LDH (3 h): 79.8 IU/L; Na (3 h): 137.2 meq/L; PL (3 h): 132.6 mg/dL; RALB (3 h): 3.6 g/dL; TBIL (3 h): 0.6 mg/dL; TC (3 h): 79 mg/dL; TG (3 h): 50.8 mg/dL; TP (3 h): 5.3 g/dL; gamma-GTP (3 h): 1.2 IU/L; TERMINAL_BW (6 h): 221.7 g; APTT (6 h): 17.1 s; Bas (6 h): 0%; Eos (6 h): 1%; Fbg (6 h): 220.6 mg/dL; Hb (6 h): 13.7 g/dL; Ht (6 h): 41.3%; Lym (6 h): 75.6%; MCH (6 h): 21.7 pg; MCHC (6 h): 33.1%; MCV (6 h): 65.4 fL; Mono (6 h): 4.4%; Neu (6 h): 19.2%; PT (6 h): 12.2 s; Plat (6 h): 114 x10_4/uL; RBC (6 h): 633.2 x10_4/ul; Ret (6 h): 8.5%; WBC (6 h): 102.3 x10_2/uL; KIDNEY_L (6 h): 1 g; KIDNEY_R (6 h): 1 g; KIDNEY_TOTAL (6 h): 2 g; LIVER (6 h): 9.9 g; A/G (6 h): 1.9; ALP (6 h): 687.6 IU/L; ALT (6 h): 34.4 IU/L; AST (6 h): 71 IU/L; BUN (6 h): 15 mg/dL; CRE (6 h): 0.4 mg/dL; Ca (6 h): 10.7 mg/dL; Cl (6 h): 104.2 meq/L; DBIL (6 h): 0.032 mg/dL; GLC (6 h): 194.4 mg/dL; IP (6 h): 9.5 mg/dL; K (6 h): 4.7 meq/L; LDH (6 h): 81.6 IU/L; Na (6 h): 138 meq/L; PL (6 h): 130.6 mg/dL; RALB (6 h): 3.6 g/dL; TBIL (6 h): 0.5 mg/dL; TC (6 h): 80 mg/dL; TG (6 h): 29 mg/dL; TP (6 h): 5.5 g/dL; gamma-GTP (6 h): 2 IU/L; TERMINAL_BW (9 h): 216.1 g; APTT (9 h): 16.6 s; Bas (9 h): 0%; Eos (9 h): 0.8%; Fbg (9 h): 229.2 mg/dL; Hb (9 h): 13.4 g/dL; Ht (9 h): 40.4%; Lym (9 h): 72.6%; MCH (9 h): 21.7 pg; MCHC (9 h): 33.1%; MCV (9 h): 65.5 fL; Mono (9 h): 6.6%; Neu (9 h): 20%; PT (9 h): 12.1 s; Plat (9 h): 113.6 x10_4/uL; RBC (9 h): 617.2 x10_4/ul; Ret (9 h): 8.9%; WBC (9 h): 90 x10_2/uL; KIDNEY_L (9 h): 1 g; KIDNEY_R (9 h): 1 g; KIDNEY_TOTAL (9 h): 2 g; LIVER (9 h): 8.9 g; A/G (9 h): 2.2; ALP (9 h): 717.4 IU/L; ALT (9 h): 31 IU/L; AST (9 h): 66.8 IU/L; BUN (9 h): 11.2 mg/dL; CRE (9 h): 0.5 mg/dL; Ca (9 h): 10.7 mg/dL; Cl (9 h): 106.2 meq/L; DBIL (9 h): 0.058 mg/dL; GLC (9 h): 202.6 mg/dL; IP (9 h): 10 mg/dL; K (9 h): 4.7 meq/L; LDH (9 h): 89.8 IU/L; Na (9 h): 138.4 meq/L; PL (9 h): 128 mg/dL; RALB (9 h): 3.7 g/dL; TBIL (9 h): 0.4 mg/dL; TC (9 h): 74.2 mg/dL; TG (9 h): 43.8 mg/dL; TP (9 h): 5.4 g/dL; gamma-GTP (9 h): 1.6 IU/L; TERMINAL_BW (24 h): 229.2 g; APTT (24 h): 16.9 s; Bas (24 h): 0%; Eos (24 h): 0.8%; Fbg (24 h): 244 mg/dL; Hb (24 h): 12.9 g/dL; Ht (24 h): 39.2%; Lym (24 h): 75.4%; MCH (24 h): 21.3 pg; MCHC (24 h): 32.9%; MCV (24 h): 64.7 fL; Mono (24 h): 6.8%; Neu (24 h): 17.2%; PT (24 h): 11.7 s; Plat (24 h): 121.5 x10_4/uL; RBC (24 h): 606.2 x10_4/ul; Ret (24 h): 8.1%; WBC (24 h): 94.9 x10_2/uL; KIDNEY_L (24 h): 1.1 g; KIDNEY_R (24 h): 1.1 g; KIDNEY_TOTAL (24 h): 2.2 g; LIVER (24 h): 11.9 g; A/G (24 h): 2.1; ALP (24 h): 860.6 IU/L; ALT (24 h): 34.4 IU/L; AST (24 h): 58.2 IU/L; BUN (24 h): 15.8 mg/dL; CRE (24 h): 0.5 mg/dL; Ca (24 h): 10.9 mg/dL; Cl (24 h): 103.6 meq/L; DBIL (24 h): 0.03 mg/dL; GLC (24 h): 194.8 mg/dL; IP (24 h): 7.7 mg/dL; K (24 h): 4.6 meq/L; LDH (24 h): 176.4 IU/L; Na (24 h): 139.2 meq/L; PL (24 h): 148 mg/dL; RALB (24 h): 3.7 g/dL; TBIL (24 h): 0.4 mg/dL; TC (24 h): 77.2 mg/dL; TG (24 h): 106.2 mg/dL; TP (24 h): 5.6 g/dL; gamma-GTP (24 h): 0.6 IU/L
